Test results as given in patent US7238689B2, “Isoxazoline derivative and herbicide comprising the same as active ingredient” (Ihara Chemical Industry Co., Ltd., priority 2001, dated 2007).

How the values were obtained:
Format in all cases: in vivo
Set-up in all cases: scale not given here
[1] = test system: Monochoria vaginalis (Murm. f.) Presl var. plantaginea (Roxb.) Solms-Laub.; assay: Herbicidal effect by paddy field soil treatment; settings: wettable powder, active ingredient 1000 g/ha, examined at the 21st day from the treatment
Method in brief: (§1)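 Seeds sown in puddled paddy soil under 3 cm of water; the next day wettable powders diluted in water were dropped onto the water surface at 1,000 g active ingredient/ha. Plants grown in a greenhouse, with herbicidal effect scored on day 21 against a rating standard.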

[2] = test system: Echinochloa oryzicola Vasing; assay: Herbicidal effect by paddy field soil treatment; settings: wettable powder, active ingredient 1000 g/ha, examined at the 21st day from the treatment
Method in brief: as §1

[3] = test system: Echinochloa crus-galli (L.) Beauv. var. crus-galli; assay: Herbicidal effect by upland foliage treatment; settings: active ingredient 1000 g/ha, examined at 14th day from treatment
Method: (§2) A sand was filled in a plastic pot of 80 cm^2. Seeds of Echinochloa crus-galli (L.) Beauv. var. crus-galli and Setaria viridis (L.) Beauv. were sowed. Breeding was made in a greenhouse for 2 weeks. Wettable powders produced in accordance with the Formulation 1 were diluted with water and sprayed on the whole foliage of plants from above the plants using a small sprayer in an amount of 1,000 liters per 1 hectare so that the amount of each active ingredient became 1,000 g per 1 hectare. Then, breeding was made in the greenhouse, and the herbicidal effect of each wettable powder was examined at the 14th day from the treatment in accordance with the standard shown in Table 21.

[4] = test system: Setaria viridis (L.) Beauv.; assay: Herbicidal effect by upland foliage treatment; settings: active ingredient 1000 g/ha, examined at 14th day from treatment
Method: as §2

[5] = test system: Setaria viridis (L.) Beauv.; assay: Herbicidal effect by upland field soil treatment; settings: active ingredient 1000 g/ha, examined at 21st day from treatment
Text: (§3) An upland field soil was filled in a plastic pot of 80 cm^2. Seeds of Echinochloa crus-galli (L.) Beauv. var. crusgalli and Setaria viridis (L.) Beauv. were sowed, followed by covering with the same soil. […] Then, breeding was made in a greenhouse, and the herbicidal effect of each wettable powder was examined at the 21st day from the treatment in accordance with the standard shown in Table 21.

[6] = test system: Echinochloa crus-galli (L.) Beauv. var. crusgalli; assay: Herbicidal effect by upland field soil treatment; settings: active ingredient 1000 g/ha, examined at 21st day from treatment
Text: as §3

Compound | Herbicidal effect index, Monochoria vaginalis (Burm. F.) Presl var. plantaginea (Roxb.) Solms-Laub. [1] | Herbicidal effect index, Echinochloa oryzicola Vasing [2] | herbicidal effect (index per standard of Table 21), Echinochloa curs-galli (L.) Beauv. Var. crus-galli [3] | herbicidal effect (index per standard of Table 21), Setaria viridis (L.) Beauv. [4] | herbicidal effect (index per standard of Table 21), Setaria viridis (L.) Beauv. [5] | herbicidal effect (index per standard of Table 21), Echinochloa curs-galli (L.) Beauv. Var. crus-galli [6]
CCC(C)n1nc(C(F)(F)F)c(CS(=O)(=O)C2=NOC(C)(C)C2)c1Cl (stereo not drawn) [3-0081] | 5 | 5 | 4 | 4 | 5 | 5
CCC(C)n1nc(Cl)c(CS(=O)(=O)C2=NOC(C)(C)C2)c1C(F)(F)F (stereo not drawn) [3-0082] | 5 | 5 | 4 | 4 | 5 | 5
CC(C)Cn1nc(C(F)(F)F)c(CS(=O)(=O)C2=NOC(C)(C)C2)c1Cl [3-0083] | 5 | 5 | 4 | 4 | 5 | 5
CC(C)Cn1nc(Cl)c(CS(=O)(=O)C2=NOC(C)(C)C2)c1C(F)(F)F [3-0084] | 5 | 5 | 4 | 4 | 5 | 5
CCCCn1nc(C(F)(F)F)c(CS(=O)(=O)C2=NOC(C)(C)C2)c1Cl [3-0085] | 5 | 5 | 4 | 4 | 5 | 5
CCCCn1nc(Cl)c(CS(=O)(=O)C2=NOC(C)(C)C2)c1C(F)(F)F [3-0086] | 5 | 5 | 4 | 4 | 5 | 5
CC1(C)CC(S(=O)(=O)Cc2c(Cl)nn(CC(F)F)c2C(F)(F)F)=NO1 [3-0115] | 5 | 5 | 5 | 4 | 5 | 5
COCn1nc(C(F)(F)F)c(CS(=O)(=O)C2=NOC(C)(C)C2)c1Cl [3-0118] | 5 | 5 | 5 | 4 | 5 | 5
COCn1nc(Cl)c(CS(=O)(=O)C2=NOC(C)(C)C2)c1C(F)(F)F [3-0119] | 5 | 5 | 5 | 4 | 5 | 5
CCOCn1nc(C(F)(F)F)c(CS(=O)(=O)C2=NOC(C)(C)C2)c1Cl [3-0120] | 5 | 5 | 5 | 5 | 5 | 5
CC(=O)CCn1nc(C(F)(F)F)c(CS(=O)(=O)C2=NOC(C)(C)C2)c1Cl [3-0144] | 5 | 5 | 5 | 5 | 5 | 5
Cc1nsc(Cl)c1CS(=O)(=O)C1=NOC(C)(C)C1 [4-0002, [(5-chloro-3-methyl-isothiazol-4-yl)-methylsulfonyl]-5,5-dimethyl-2-isoxazoline] | 5 | 5 | 5 | 4 | 5 | 5
Cc1noc(C)c1CS(=O)(=O)C1=NOC(C)(C)C1 [4-0005] | 5 | 5 | 5 | 4 | 5 | 5
Cc1nn(C)c(CS(=O)(=O)C2=NOC(C)(C)C2)c1Cl [5-0001] | 5 | 5 | 5 | 4 | 5 | 5
CCc1nn(C)c(CS(=O)(=O)C2=NOC(C)(C)C2)c1Cl [5-0002] | 5 | 5 | 5 | 5 | 5 | 5
Cn1ncc(C(F)(F)F)c1CS(=O)(=O)C1=NOC(C)(C)C1 [5-0003] | 5 | 5 | 5 | 4 | 5 | 5
CC1(C)CC(S(=O)(=O)Cc2c(C(F)(F)F)cnn2-c2ccccc2)=NO1 [5-0007] | 5 | 5 | 5 | 5 | 5 | 5
Cc1cc(CS(=O)(=O)C2=NOC(C)(C)C2)no1 [6-0004] | 5 | 5 | 5 | 4 | 5 | 5
Cc1cc[n+]([O-])c(Cl)c1CS(=O)(=O)C1=NOC(C)(C)C1 [7-0008] | 5 | 5 | 5 | 5 | 5 | 5
COc1c(CS(=O)(=O)C2=NOC(C)(C)C2)c(C)cc[n+]1[O-] [7-0009] | 5 | 5 | 4 | 4 | 5 | 5
